Values after ≈ are worked out from the molar mass of the structure shown. Marks after values point to notes of the source that are not given here.
Key:
[1] = Sensory malodor reduction test, Sniffin' Sticks odor pens, tobacco malodor; details: for Average Perceived Malodor Intensity (APMI) / Average Perceived Overall Odor Intensity (APOOI): scale 0-10
Experimental: (§1) The Compound 1, as defined above, was tested, using current sensory analysis methods, for its ability to reduce the perception of bathroom, tobacco, kitchen, pet and body malodors.
The tobacco malodor was prepared by extraction of cigarette debris, comprising: ash; filter; and, paper. The debris from 30 smoked Marlboro lied cigarettes (origin: Philip Morris International) was collected in a 500 ml glass powder jar with a screw closure. 300 ml of ethanol was added. The combination was mixed in a Turbula mixer for 8 hours and then filtered through a Whatman Grade 4 filter paper. The filtrate was used as the tobacco malodor.
(§2) In the following description, the test concentration of the malodor sample used in each case was selected so as to provide a perceived malodor intensity, when evaluated in Sniffin' Sticks odor pens as described below, that was approximately of the order of 6 units on the scale described under Section C below.
Tobacco malodor: 50% by weight in propylene glycol
(§3) The test concentration of the Compound 1 used in each of the malodor reduction tests was selected so as to provide a perceived intensity, when evaluated in Sniffin' Sticks odor pens as described below, that was approximately of the order of 6 units on the scale described under Section C below. The concentration of Compound 1 that was perceived as comprising an odor intensity of about 6 when evaluated in Sniffin' Sticks odor pens was 16% by weight in propylene glycol.
(§4) Stock solutions were prepared as follows: • Compound 1 32% by weight: 12.8 g of Compound 1 was mixed with 27.2 g of propylene glycol. • Bathroom malodor 0.6% by weight: 0.6 g of bathroom malodor was mixed with 99.4 g of propylene glycol. • Kitchen malodor 60% by weight: 12.0 g of kitchen malodor was mixed with 8.0 g of propylene glycol. • Body malodor 1% by weight: 1.0 g of body malodor was mixed with 99.0 g of propylene glycol. • Pet malodor 1% by weight: 1.0 g of pet malodor was mixed with 99.0 g of propylene glycol. • The tobacco malodor was used as is.
(§5) Each sensory test comprised 3 samples: a malodor only sample; a test sample comprising a combination of […] and the test malodor; and, a Compound 1 only sample. The samples for the sensory tests were prepared as follows:
(§6) Malodor only sample: in a separate beaker 3.0 g of malodor stock solution, was mixed with 3.0 g of propylene glycol. Once fully homogenized, 2.0 g of the resulting solution was applied to the absorbent fiber in the body of a Sniffin' Stick odor pen (origin: Burghart Messtechnik GmbH). The odor pen was immediately capped and allowed to equilibrate for 24 hours before use.
as §6, with “Compound 1” for “Malodor”, “Compound 1” for “malodor”, “solution” for “solution,”
as §6, with “Test samples:” for “Malodor only sample:”, “Compound 1” for “malodor”, “solution” for “solution,”, “malodor stock solution.” for “propylene glycol.”
The samples were assessed by a panel of 19 trained panelists. […]

[2] = test system: Staphylococcus haemolyticus ATCC 114126; assay: MIC test in 96 well plates; format: cell-based; details: S. haemolyticus, associated with body odor
Experimental: (§7) Bacterial solutions of four bacterial strains were prepared for MIC test as follows. Stock cultures stored at -80° C. were subcultured onto agar plate media, and incubated at 37° C. for 24 h to obtain single colonies. Single colonies of the primary cultures were inoculated into broth media and incubated at 37° C., 160 rpm overnight. Aliquots of overnight cultures were inoculated into 50 ml of fresh broth media, and incubated at 37° C., 160 rpm. When the OD reached the target value for each strain (see Table 1), cells were harvested by centrifugation at 5000 rpm for 10 min, and then resuspended in the same fresh broth media at the same volume before the centrifugation. Aliquots (1.1 ml) of each cell suspension were diluted in 200 ml of the same broth media as the bacterial solutions for the MIC test. [table] Sample solutions of casmirone and reference material ([…]) were prepared as follows. Stock solutions of 1% and 20% were prepared in ethanol, and then seven serial dilutions of each stock solution were prepared in ethanol to obtain a total of 16 solutions of casmirone or the reference material. Aliquot (10 μl) of each solution was used for MIC test. The tested final concentrations of each material were 29, 44, 66, 99, 148, 222, 333, 500, 590, 900, 1300, 2000, 3000, 4500, 6700, 10000 ppm. The test material control was trans-hexenal, a known material for MIC tests and control tests (e.g. see Int J Food Microbiol. 2010 January 1;136(3):304-9). MIC test were performed in 96 well plates. […] Column 1 contained bacterial solution only (the positive growth control), and column 12 contained growth media only (the negative growth control). Aliquots (10 μl) of sample solutions were mixed with 190 μl of bacterial solutions in growth media, at concentrations of 10^5 to 10^6 cfu/ml, in wells of the 96 well plates. Three replicates for solution. The 96 wells plates were incubated at 37° C., 160 rpm overnight. After incubation, wells of 96 well plates were examined. Turbid wells were regarded as an indication of microbial growth. Minimal inhibition concentration (MIC) was determined as the lowest concentration where no growth was observed. Average MIC value of the three replicates was calculated against each strain (see Table 3).

[3] = test system: Morganella morganii URI62; assay: MIC test in 96 well plates; format: cell-based; details: M. morganii, associated with urine/bathroom
Experimental: as §7

[4] = test system: Staphylococcus aureus DSMZ 1104; assay: MIC test in 96 well plates; format: cell-based; details: S. aureus, associated with hygiene
Experimental: as §7

[5] = test system: Streptococcus agalactiae URI3; assay: MIC test in 96 well plates; format: cell-based; details: S. agalactiae, associated with urine/bathroom
Experimental: as §7

[6] = Sensory malodor reduction test, Sniffin' Sticks odor pens, bathroom malodor; details: for Average Perceived Overall Odor Intensity (APOOI) / Average Perceived Malodor Intensity (APMI): scale 0-10
Experimental: as §1, §2
Bathroom malodor: 0.3% by weight in propylene glycol
as §3, §4, §5, §6
as §6, with “Compound 1” for “Malodor”, “Compound 1” for “malodor”, “solution” for “solution,”
as §6, with “Test samples:” for “Malodor only sample:”, “Compound 1” for “malodor”, “solution” for “solution,”, “malodor stock solution.” for “propylene glycol.”
(§8) The samples were assessed by a panel of 19 trained panelists. By “trained panelists” we mean here individuals that had previously been screened for olfactive acuity and were experienced in rating the perfume and malodor intensity. Moreover, the panelists were prior acquainted with the malodor sample before carrying out the malodor reduction efficacy test.
(§9) Each test comprised a malodor only sample, a Compound 1 only sample, and a test sample that comprised Compound 1 and the malodor. […]

[7] = Sensory malodor reduction test, Sniffin' Sticks odor pens, body malodor; details: for Average Perceived Malodor Intensity (APMI) / Average Perceived Overall Odor Intensity (APOOI): scale 0-10
Experimental: as §1, §2
Body malodor: 0.5% by weight in propylene glycol
as §3, §4, §5, §6
as §6, with “Compound 1” for “Malodor”, “Compound 1” for “malodor”, “solution” for “solution,”
as §6, with “Test samples:” for “Malodor only sample:”, “Compound 1” for “malodor”, “solution” for “solution,”, “malodor stock solution.” for “propylene glycol.”
as §8, §9

[8] = Sensory malodor reduction test, Sniffin' Sticks odor pens, kitchen malodor; details: for Average Perceived Malodor Intensity (APMI) / Average Perceived Overall Odor Intensity (APOOI): scale 0-10
Experimental: as §1, §2
Kitchen malodor: 30% by weight in propylene glycol
as §3, §4, §5, §6
as §6, with “Compound 1” for “Malodor”, “Compound 1” for “malodor”, “solution” for “solution,”
as §6, with “Test samples:” for “Malodor only sample:”, “Compound 1” for “malodor”, “solution” for “solution,”, “malodor stock solution.” for “propylene glycol.”
as §8, §9

[9] = Sensory malodor reduction test, Sniffin' Sticks odor pens, pet malodor; details: for Average Perceived Malodor Intensity (APMI) / Average Perceived Overall Odor Intensity (APOOI): scale 0-10
Experimental: as §1, §2
Pet malodor: 0.5% by weight, in propylene glycol
as §3, §4, §5, §6
as §6, with “Compound 1” for “Malodor”, “Compound 1” for “malodor”, “solution” for “solution,”
as §6, with “Test samples:” for “Malodor only sample:”, “Compound 1” for “malodor”, “solution” for “solution,”, “malodor stock solution.” for “propylene glycol.”
as §8, §9

[10] = Compound 1 + Malodor vs Malodor Only
[11] = Compound 1 + Malodor: 1.00 g tobacco malodor, 0.32 g Compound 1, 0.68 g propylene glycol
[12] = Compound 1 Only: 0.32 g Compound 1, 1.68 g propylene glycol, tobacco malodor test
[13] = Compound 1 Only: 0.320 g Compound 1, 1.680 g propylene glycol, bathroom malodor test
[14] = Compound 1 + Malodor: 0.01 g body malodor, 0.32 g Compound 1, 1.67 g propylene glycol
[15] = Compound 1 Only: 0.32 g Compound 1, 1.68 g propylene glycol, body malodor test
[16] = Compound 1 + Malodor: 0.60 g kitchen malodor, 0.32 g Compound 1, 1.08 g propylene glycol
[17] = Compound 1 Only: 0.32 g Compound 1, 1.68 g propylene glycol, kitchen malodor test
[18] = Compound 1 + Malodor: 0.01 g pet malodor, 0.32 g Compound 1, 1.67 g propylene glycol
[19] = Compound 1 Only: 0.32 g Compound 1, 1.68 g propylene glycol, pet malodor test

## O=C1CCC=CCCC=CCCC1 [Compound 1, 4,8-cyclododecadien-1-one]
[1]; [10]
  reducing the perceived intensity of tobacco malodor: efficient
[1]; [11]
  Average Perceived Malodor Intensity (APMI): 3.35 *
  Average Perceived Overall Odor Intensity (APOOI): 5.85
[1]; [12]
  Average Perceived Malodor Intensity (APMI): 1.27 *
  Average Perceived Overall Odor Intensity (APOOI): 6.07
[2]
  activity in application: (compound 1 is efficiently active in application)
[2]; Staphylococcus haemolyticus, ATCC114126, average of three replicates, 37° C. overnight
  MIC: 345 mg/L (≈ 1.94 mM)
[3]
  activity in application: (compound 1 is efficiently active in application)
[3]; Morganella morganii, URI62, average of three replicates, 37° C. overnight
  MIC: 900 mg/L (≈ 5.05 mM)
[4]
  activity in application: (compound 1 is efficiently active in application)
[4]; Staphylococcus aureus, DSMZ1104, average of three replicates, 37° C. overnight
  MIC: 333 mg/L (≈ 1.87 mM)
[5]
  activity in application: (compound 1 is moderately active in application)
[5]; Streptococcus agalactiae, URI3, average of three replicates, 37° C. overnight
  MIC: 3430 mg/L (≈ 19.3 mM)
[6]; [10]
  reducing the perceived intensity of bathroom malodor: efficient
[6]; Compound 1 + Malodor: 0.006 g bathroom malodor, 0.320 g Compound 1, 1.674 g propylene glycol
  Average Perceived Overall Odor Intensity (APOOI): 5.99
[6]; Compound 1 + Malodor: 0.006 g bathroom malodor, 0.320 g Compound 1, 1.674 g propylene glycol, 19 panelists
  Average Perceived Malodor Intensity (APMI): 1.61 *
[6]; [13]
  Average Perceived Malodor Intensity (APMI): 0.91 *
  Average Perceived Overall Odor Intensity (APOOI): 5.75
[7]; [10]
  reducing the perceived intensity of body malodor: efficient
[7]; [14]
  Average Perceived Malodor Intensity (APMI): 2.78 *
  Average Perceived Overall Odor Intensity (APOOI): 5.61
[7]; [15]
  Average Perceived Malodor Intensity (APMI): 0.83 *
  Average Perceived Overall Odor Intensity (APOOI): 6.39
[8]; [10]
  reducing the perceived intensity of kitchen malodor: efficient
[8]; [16]
  Average Perceived Malodor Intensity (APMI): 2.49 *
  Average Perceived Overall Odor Intensity (APOOI): 5.51
[8]; [17]
  Average Perceived Malodor Intensity (APMI): 0.95 *
  Average Perceived Overall Odor Intensity (APOOI): 5.78
[9]; [10]
  reducing the perceived intensity of pet malodor: efficient
[9]; [18]
  Average Perceived Malodor Intensity (APMI): 4.84 *
  Average Perceived Overall Odor Intensity (APOOI): 6.70
[9]; [19]
  Average Perceived Malodor Intensity (APMI): 0.93 *
  Average Perceived Overall Odor Intensity (APOOI): 6.01

Reference: US20170340905A1, “MACROCYCLIC KETONE AS MALODOR COUNTERACTING INGREDIENT” (Firmenich SA, priority 2014, published 2017)
